Experiment [1] deals with patient with bowel pain associated with menses. To be noted: open injection at 4 hours after the placebo saline administration.
Method: The patients were greeted in a waiting room, escorted to an examination room, and introduced to the study. […] A one-hour NH condition preceded either the RL or RP administration in both sessions. Thus, patients rated their rectal pain for one hour at 15-minute intervals before injection of the rectal agent (NH) and 15 min, 30 min, 45 min, 1 hour, 2 hours, 4 hours, and 6 hours afterwards. Both agents were applied through a plastic syringe. […] After all of the sessions were completed, the patients were debriefed.
Experiment [2] relates to patients with pain associated with IBS.
From the text: Ten Caucasian pre-menopausal women with IBS participated in the study. The mean age was 33 (±4) years. All participants completed a GI symptom questionnaire and received a physical examination by an experienced gastroenterologist. The diagnosis of IBS was made based on the ROME II criteria and exclusion of organic disease (Thompson et al., 1999). All the patients had diarrhea-predominant IBS and had symptoms for at least 5 years. All of the IBS patients were carefully screened to verify that each patient had no clinical criteria for fibromyalgia or chronic pain condition.
All subjects were asked to fast for 12 hours and self-administer one Fleets® enema (CB Fleet Co., Inc., Lynchberg, Va.) at least two hours prior to arriving for the experimental procedures. […] A validated visual analogue scale was used to measure the subjects' perceived pain (Price, 1994).
A one-hour NH condition preceded either the RL or RP administration in both sessions. Thus, patients rated their rectal pain for one hour at 15-minute intervals before injection of the rectal agent (NH) and 15 min, 30 min, 45 min, 1 hour, 2 hours, 4 hours, and 6 hours afterwards. Both agents were applied through a plastic syringe.
The pain rating at each post-treatment time point was subtracted from the baseline rating to create a pain intensity difference score (PID) for each post-treatment time point of each patient. […]

Turning to `CCN(CC)CC(=O)Nc1c(C)cccc1C` [lidocaine], the “effect of open injection on bowel pain” value in experiment [1] is recorded as “reversed bowel pain”. The “duration of pain ameliorating effect in IBS patients” value in experiment [2] is reported as “at least 4 hours”.

These data come from US20040142968A1, “Method and kit for treating lower bowel pain” (priority 2003, published 2004).
